# Data reported in BindingDB's records for PubMed 30795990 (n/a, 2019).
# Target: Cyclin-dependent kinase 11B (Homo sapiens) (UniProt P21127)
# Experiment: Inhibition of GST-tagged human recombinant CDK11 (1 to 795 residues) expressed in baculovirus expression system
# Chain of Cyclin-dependent kinase 11B (Homo sapiens) (P21127 whole entry, looked up, the tested form may be a part): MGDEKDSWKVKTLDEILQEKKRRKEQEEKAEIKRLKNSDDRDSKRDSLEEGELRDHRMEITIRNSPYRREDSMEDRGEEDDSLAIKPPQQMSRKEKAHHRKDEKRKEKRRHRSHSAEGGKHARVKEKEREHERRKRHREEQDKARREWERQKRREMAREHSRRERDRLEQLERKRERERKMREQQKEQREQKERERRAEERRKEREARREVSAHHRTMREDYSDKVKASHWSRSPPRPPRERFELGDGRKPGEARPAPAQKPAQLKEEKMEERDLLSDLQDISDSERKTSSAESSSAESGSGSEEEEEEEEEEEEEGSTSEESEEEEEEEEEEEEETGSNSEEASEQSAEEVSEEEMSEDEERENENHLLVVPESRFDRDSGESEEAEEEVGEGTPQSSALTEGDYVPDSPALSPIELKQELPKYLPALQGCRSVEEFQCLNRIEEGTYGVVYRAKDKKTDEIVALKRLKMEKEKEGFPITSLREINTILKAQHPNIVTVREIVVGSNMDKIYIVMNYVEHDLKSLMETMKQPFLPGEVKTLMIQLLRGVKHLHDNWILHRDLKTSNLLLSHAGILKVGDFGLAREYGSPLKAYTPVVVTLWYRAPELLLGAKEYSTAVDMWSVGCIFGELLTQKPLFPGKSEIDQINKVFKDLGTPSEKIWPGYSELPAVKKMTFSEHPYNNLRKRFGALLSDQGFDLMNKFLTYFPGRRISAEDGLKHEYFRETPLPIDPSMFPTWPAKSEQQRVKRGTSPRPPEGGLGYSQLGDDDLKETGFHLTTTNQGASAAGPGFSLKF
structure (smiles),measurement,value
O=C(c1ccc2c(c1)OCCO2)C1CCN(c2ncnc3sccc23)CC1,IC50,> 1 µM
